Source: PubChem BioAssay AID540260 (Sanford-Burnham Center for Chemical Genomics, 2011)
The source made the active and inactive calls. How the calls were made is not given here.

Molecular target: Alkaline phosphatase, placental type (Homo sapiens) (UniProt P05187)
Test: inhibitors of placental alkaline phosphatase – biochemical, human PLAP isozyme, set 2, selectivity assay for human IAP inhibitor project, SAR follow-up (AID 540260)
Details: purified placental alkaline phosphatase enzyme activity

Row | SMILES | IC50
1 | N#Cc1ccc(CNC(=O)CCNS(=O)(=O)c2ccc3[nH]c(=O)oc3c2)cc1 | > 100 µM (inactive)
2 | O=C(CNS(=O)(=O)c1ccc2[nH]c(=O)oc2c1)Nc1ccc2c(c1)OCO2 | > 100 µM (inactive)
3 | COc1ccc(NC(=O)CNS(=O)(=O)c2ccc3[nH]c(=O)oc3c2)cc1OC | > 100 µM (inactive)

Next, values leading:

Row | IC50 | SMILES
4 | > 100 µM (inactive) | O=C(CNS(=O)(=O)c1ccc2[nH]c(=O)oc2c1)NCc1ccc2c(c1)OCO2
5 | > 100 µM (inactive) | Cc1ccc(C)c(NC(=O)CCNS(=O)(=O)c2ccc3[nH]c(=O)oc3c2)c1
